Measured values published in US7109175B1, “Specific steady-state R-type CA2+ channel blockers and use thereof” (Universite de Sherbrooke, priority 2000, dated 2006).
“Also recorded” adds a separate entry of the source.

What was measured:
[1] = test system: vascular permeability in the rat skin; assay: Bradykinin-induced skin vascular permeability in rats; assay type: in vivo; details: for increase of vascular permeability caused by bradykinin: MV 8612 8 and 16, MV 8608 27 and 54, i.p.
Method: To assess further the anti-inflammatory action of MV 8612 and MV 8608, their effects against the inflammatory responses caused by several mediators of inflammation in a murine model of pleurisy were tested (Saleh et al., 1996, Br. J. Pharmacol. 118:811–819). In addition, both compounds were tested against the increase of vascular permeability caused by bradykinin in the rat skin (Neves et al., 1993b, Phytotherapy Research. 7:356–362).

[2] = test system: human aortic vascular smooth muscle cell line; assay: Spontaneous proliferation of human aortic vascular smooth muscle cell line; assay type: cell-based; details: 10^−8M
[3] = test system: TTX-sensitive fast Na^+ current; assay: Whole-cell voltage clamp, TTX-sensitive fast Na+ current in heart cells; assay type: cell-based, chick
Method: Single cells of different types in culture were prepared from biopsies of human, chick and rabbit. Known and accepted methods for the isolation of fast Na^+ current, T, L and R-type Ca^2+ channels as well as delayed outward K^+ current were used (Bkaily 1994, supra).
The compounds to be tested are added to the appropriate extracellular solution after recording a stable ionic current or normal steady-state level of […]. The effect of different concentrations of compounds are tested on the different type of current and [Ca]i of the different cell types. The effect of each concentration of the compounds in function of the time of exposure are then determined. Once the steady-state effect is reached, the second concentration is added, etc.
In one series of experiments (n=5), the effect of different concentrations of MV8608 (10^−11M to 10^−7M) on the TTX-sensitive fast Na^+ current were tested using the whole-cell voltage clamp technique and experimental conditions reported elsewhere (Bkaily et al., 1988, supra; 1993, supra).
In a series of experiments (n=5), we tested the effect of another MV compound MV8612 on the TTX-sensitive fast Na^+ current (INa) of embryonic chick heart cells using the whole-cell voltage clamp technique described above.

[4] = test system: writhing response in mice; assay: Writhing response in mice (acetic acid, acetylcholine, kaolin); assay type: in vivo; details: for acetic acid, acetylcholine and kaolin-induced writhing response: MV 8612 0.25 to 2.5, MV 8608 2.7, i.p., 30 min prior
From the text: The antinociceptive actions of compound MV 8612 and MV 8608 were investigated in different models of nociception in mice as reported previously (Vaz et al., 1996, J. Pharmacol. Exp. Ther. 278:304–312).

[5] = test system: R-type Ca^2+ channel; assay: Cell-attached single channel recording of R-type Ca2+ channel, human aortic VSM cell line; assay type: cell-based; details: for R-type channel opening (probability, duration, frequency) / R-type single channel current: 10^−7M extra-patch pipette application; for R-type single channel amplitude and probability of opening: nifedipine 10^−6M present
Method: Also, for the R-type Ca^2+ channel current, the effect of the compounds are tested on the R-type Ca^2+ channel amplitude, voltage dependency and probability of opening, by using the cell-attached patch clamp technique (Bkaily 1994, supra; 1996, supra) and intra and extra patch pipette application of the drug.
In another series of experiments (n=7), using the cell attached patch clamp technique (Bkaily G. 1994, supra; Bkaily G. et al., 1996, supra), the effect of 10^−7M of MV8608 on the R-type Ca^2+ channel in human aortic vascular smooth muscle cell line was tested. […] In a second series of experiments (n=3), the patch pipette solution was free of MV8608 and after recording the single channel activities at different voltages, MV8608 (final concentration of 10^−7M) was applied to the extra-patch pipette solution containing 140 mM KCl (where the rest of the cell is bathing). This experiment was designed to verify whether MV8608 crossed the cell membrane and if so, whether its effect from the internal side of the channel under the patch is the same as that when applied at the outer side thereof. […] Such a pattern of increase of probability of opening and the open duration accompanied with the sporadic decrease of the single channel current amplitude has never been observed when MV8608 was applied at the outer side of the single channel under the patch pipette.
In another series of experiments (n=7), the effect of 10^−7M of MV8612 was tested on the R-type Ca^2+ in human aortic VSM cells, using the single channel cell attached recording technique and intra and extra patch pipette application of drugs.
In one series of experiments (n=3), MV8612 (total concentration, 10^−7M) was only applied to the patch pipette. […] As for MV8608, in one series of experiments (n=4), MV8612 (10^−7M) was only applied to the extra-patch pipette, in order to verify if the compound penetrates into the cytosol and if so, how it affects the R-type Ca^2+ channel activity.

[6] = test system: R-type Ca^2+ channel; assay: Fura-2 [Ca]i, human aortic vascular smooth muscle cells (cell line and freshly isolated); assay type: cell-based; details: for sustained increase of [Ca]i induced by high PAF: PAF 10^−7M
From the text: This sustained increase of Ca^2+ induced by depolarization of the cell membrane or hormones such as PAF, ET-1 and bradykinin is due to the increase of Ca^2+ influx through the R-type Ca^2+ channels at the sarcolemmal membrane and/or the nuclear membrane (Bkaily G., 1994, supra; 1996, supra; 1997a–d, supra). Using Ca^2+ fluorescence probes Fura-2 or Fluo-3 and 2 and three-dimension Ca^2+ imaging techniques (Bkaily G., 1994, supra; 1996, supra; 1997a–d, supra), the effect of hormones and drugs could be easily tested. These two methods are used with single cells of different types as described above.
In another series of experiments we tested the effect of MV8608 (10^−9M) on R-type Ca^2+ channels stimulation-induced sustained increase of total intracellular Ca^2+ by sustained depolarization (FIGS. 15 to 19), by PAF (10^−9M) (FIGS. 16 to 19 and 21 to 22), by ET-1 (10^−9M) (FIGS. 16 and 19) and bradykinin (BK, 10^−6M) (FIGS. 20 and 21), in embryonic chick heart cells (FIGS. 15, 16, 19 and 20), 19-week-old human fetal heart cells (FIGS. 15, 17, 18 and 20), rabbit aortic vascular smooth muscle (VSM) cells (FIGS. 20 and 21), human aortic VSM cell-line (FIG. 23) and freshly isolated (FIG. 22) as well as in freshly isolated aortic endothelial cells (FIG. 22).
In some experiments, the stimulation of the R-type Ca^2+ channel was elevated by increasing the concentration of PAF from 10^−9M up to 10^−7. […] Only a concentration of 10^−6M of MV8608 was able to block the high PAF effect on the sustained increase of [Ca]i (FIG. 23).
Using Fura-2 [Ca]i measurement technique, in one series of experiments we tested the effect of MV8612 (10^−9M) on the stimulation of R-type Ca^2+-induced sustained increase of [Ca]i by sustained depolarization (FIGS. 26 and 27), PAF (10^−9M, FIG. 34) and ET-1 (FIGS. 33 and 34).

## C[C@]12CC[C@H](O)CC1=CC[C@@H]1[C@@H]2CC[C@]2(C)[C@H]3[C@@H]4OC[C@H]3O[C@@H](O)[C@]12O4 [MV8608, (15R, 16R, 20S)-14, 16:15,20:16,21-triepoxi-15,16-seco 14β, 17α-pregn-5-ene-3β, 15-diol]
[1]
  increase of vascular permeability caused by bradykinin: antagonised in a dose-related manner
[2]
  spontaneous proliferation: significantly decreased
[3]; 10^−11M to 10^−7M, single heart cell, n=5
  effect on TTX-sensitive fast Na+ current: no effect; also recorded: absence of the effect
[4]
  acetic acid, acetylcholine and kaolin-induced writhing response: only partial or even no antinociceptive action
[5]
  R-type channel opening (probability, duration, frequency): increased the probability and duration of opening
  R-type single channel current: spontaneous decrease and release of the blockade of the single channel current
[5]; 10^−7M in the patch pipette
  R-type single channel conductance: without affecting its single channel conductance
  R-type single channel amplitude and probability of opening: decreased the single channel amplitude and probability of opening
[6]; 10^−9M, PAF 10^−9M, freshly isolated human aortic VSM cells
  PAF induced sustained increase of [Ca]i: blockade
[6]; MV8608 10^−6M, human aortic VSM cell line
  sustained increase of [Ca]i induced by high PAF: able to block; also recorded: blockade
[6]; MV8608 10^−9M
  sustained increase of [Ca]i induced by high PAF: failed to significantly decrease

## COC1CC(OC2C(C)OC(O[C@H]3CC[C@@]4(C)C(=CC[C@@H]5[C@@H]4CC[C@]4(C)[C@H]6[C@@H]7OC[C@H]6O[C@@H](O)[C@]54O7)C3)CC2OC)OC(C)C1OC1CC(OC)C(OC2CC(OC)C(OC3OC(C)C(OC(C)=O)C(OC)C3OC(C)=O)C(C)O2)C(C)O1 (stereo partly shown) [MV8612]
[1]
  increase of vascular permeability caused by bradykinin: antagonised in a dose-related manner
[1]; MV 8612 versus MV 8608
  activity against bradykinin vascular permeability, comparison: more active than MV 8608
[2]
  spontaneous proliferation: significantly decreased
[3]; 10^−7M, embryonic chick heart cells
  further decrease of INa amplitude: no further decrease
[3]; 10^−8M, embryonic chick heart cells
  decrease of INa amplitude: 15%
[3]; 10^−9M, embryonic chick heart cells
  effect on fast Na+ current: had no effect
[4]
  acetic acid, acetylcholine and kaolin-induced writhing response: dose-dependent inhibition
[4]; MV 8612 4.2 to 42 nmol/site, morphine 0.26 to 13 nmol/site
  acetic acid-induced writhes, i.c.v.: dose-related antinociception
[4]; i.p., mice, acetic acid-induced writhes
  ID50 ACETIC ACID: 2.4 (1.9–2.6) μmol/kg
[4]; i.p., mice, acetylcholine-induced writhes
  ID50 ACETYLCHOLINE: 2.2 (2.0–2.3) μmol/kg
[4]; i.p., mice, kaolin-induced writhes
  ID50 KAOLIN: 0.4 (0.3–0.6) μmol/kg
[4]; less potent than morphine
  potency versus morphine, i.c.v., acetic acid-induced writhes: about 12 fold
[4]; more potent
  potency against kaolin-induced pain versus the other writhing models: about 2 fold
  potency versus morphine and indomethacin, kaolin-induced writhes: about 2 fold
[5]
  R-type channel opening (probability, duration, frequency): rapidly increased the R-type Ca^2+ opening frequence
  R-type single channel current: small decrease in the single channel current
[5]; 10^−7M in the patch pipette
  R-type single channel amplitude and probability of opening: significantly decreased
[5]; 10^−7M via the patch pipette, n=3
  decrease of R-type single Ca2+ channel current amplitude: about 75 % of the control value
[5]; intra-patch pipette, MV8612 versus MV8608
  extent of blocking of R-type channel amplitude and probability of opening, comparison: superior to that of MV8608
[6]; 10^−8M, KCl 30 mM and PAF 10^−7M, human aortic VSM cell line
  prevention of sustained increase of [Ca]i: found to prevent; also recorded: preventive effect
